Results reported in patent US12195427B2, “MASP-2 inhibitors and methods of use” (priority 2018, dated 2025).

Biological target: MASP-2 CCP2-SP (Homo sapiens (Human), UniProt O00187)
Assay: MASP-2 co-crystallization, X-ray crystallography and structure analysis (H-bonds, van der Waals contacts);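 as to Ligand-pharmacophore element distance, pharmacophore element C2: distance from averaged pharmacophore element to bound ligand; missing value means element absent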;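 as to Ligand-pharmacophore element distance, pharmacophore element C3: distance from averaged pharmacophore element to bound ligand; missing value means element absent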;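 as to Ligand-pharmacophore element distance, pharmacophore element C4: distance from averaged pharmacophore element to bound ligand; missing value means element absent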;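 as to Ligand-pharmacophore element distance, pharmacophore element C5: distance from averaged pharmacophore element to bound ligand; missing value means element absent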
Set-up: van der Waals contact distance, MASP-2 HIS 483 atom CD2 / van der Waals contact distance, MASP-2 HIS 483 atom NE2 / van der Waals contact distance, SER 654 C to compound atom / van der Waals contact distance, SER 654 O to compound atom / van der Waals contact distance, TRP 655 C to compound atom / van der Waals contact distance, MASP-2 GLY 528 atom CA / van der Waals contact distance TRP 655 atom CZ3 / van der Waals contact distance TRP 655 atom N / van der Waals contact distance TRP 655 atom CE3 / van der Waals contact distance GLY 656 atom C / van der Waals contact distance GLY 656 atom CA / van der Waals contact distance GLY 656 atom O / van der Waals contact distance, MASP-2 TYR 607 atom CD1 / van der Waals contact distance, MASP-2 PRO 606 atom O / d(C3,CA1) / d(CA1,N1)2 / d(H4,O1) / d(H4,O2) / d(O1,O2) / d(CA1,O2) / d(CA6,O1) / d(CA6,O2) / d(CA1,C5) / d(O2,H3) / d(N2,C2) / d(CA5,N2) / d(N2,C4) / d(N2,C6) / d(N2,CA3) / d(N2,O3) / d(O4,H2): unit not given beside the values
Procedure, shortened: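 Human MASP-2 CCP2-SP, untagged or 6His-tagged, was expressed in E. coli and crystallized. Crystals were soaked with inhibitor in crystallization solution, flash-cooled in liquid nitrogen, and diffracted with synchrotron X-rays (wavelength 1.0). Structures were solved by molecular replacement from 1Q3X and partially refined.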

[1] = Table A5-1 pharmacophore: distance between elements, S2/S1 region
[2] = Table A5-2 pharmacophore distance, S3/S4 region
[3] = Table A7-1, between pharmacophore elements of the bound compound
[4] = Table A7-2, between pharmacophore elements of the bound compound

MASP-2 CCP2-SP, sequence (O00187 445-686): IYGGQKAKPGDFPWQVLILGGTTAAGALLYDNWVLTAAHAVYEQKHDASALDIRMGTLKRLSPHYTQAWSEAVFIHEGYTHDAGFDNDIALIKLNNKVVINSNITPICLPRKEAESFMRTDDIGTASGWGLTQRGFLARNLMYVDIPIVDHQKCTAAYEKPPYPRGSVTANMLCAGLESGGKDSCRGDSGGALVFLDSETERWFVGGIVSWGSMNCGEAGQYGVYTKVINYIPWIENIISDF
MASP-2 CCP2-SP, sequence (O00187 364-432 partner): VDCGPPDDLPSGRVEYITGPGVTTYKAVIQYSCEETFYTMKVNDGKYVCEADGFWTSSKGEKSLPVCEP

Cc1nc(N)ccc1CNC(=O)[C@H](C)NC(=O)[C@H]1C[C@@H](c2cccc3ccccc23)CCN1.Cl.Cl [1297_2]
Ligand-pharmacophore element distance, pharmacophore element C2 (Table A4-1, element C2): 0.34
Ligand-pharmacophore element distance, pharmacophore element C3 (Table A4-1, element C3): 0.17
Ligand-pharmacophore element distance, pharmacophore element C4 (Table A4-1, element C4): 0
Ligand-pharmacophore element distance, pharmacophore element C5 (Table A4-1, element C5): 0
Ligand-pharmacophore element distance, pharmacophore element C6 (Table A4-1, element C6): 0
Ligand-pharmacophore element distance, pharmacophore element C7 (Table A4-1, element C7): 0
Ligand-pharmacophore element distance, pharmacophore element CA1 (Table A4-1, element CA1): 0.47
Ligand-pharmacophore element distance, pharmacophore element CA2 (Table A4-1, element CA2): 0.22
Ligand-pharmacophore element distance, pharmacophore element CA3 (Table A4-1, element CA3): 0
Ligand-pharmacophore element distance, pharmacophore element CA4 (Table A4-1, element CA4): 1.25
Ligand-pharmacophore element distance, pharmacophore element CA5 (Table A4-1, element CA5): 0
Ligand-pharmacophore element distance, pharmacophore element CA6 (Table A4-1, element CA6): 0
d(C3,CA1) [1]: 2.88
d(CA1,N1)2 [1]: 1.37
d(CA1,O1) [1]: 4.48
d(CA1,O2) [1]: 3.69
d(H4,O1) [1]: 4.41
d(H4,O2) [1]: 3.62
d(O1,O2) [1]: 3.57
d(N2,C2) [2]: 1.47
d(N2,CA2) [2]: 5.78
d(O2,H3) [2]: 3.98
d(O2,N2) [2]: 2.84
a(C3, CA1, O1) (Table A6-1 pharmacophore angle): 150.01
a(CA1, O1, O2) (Table A6-1 pharmacophore angle): 103.93
a(O1, O2, H4) (Table A6-1 pharmacophore angle): 128.26
a(N1, CA1, O1) b) (Table A6-1 pharmacophore angle, Methyl-amino-pyridine compounds): 174.54
a(O1, O2, H3) (Table A6-2 pharmacophore angle): 144.48
a(O1, O2, N2) (Table A6-2 pharmacophore angle): 141.45
a(O2, N2, C2) (Table A6-2 pharmacophore angle): 127.48
a(O2, N2, CA2) (Table A6-2 pharmacophore angle): 154.79
Pharmacophore torsion angle a(C3, CA1, O1, H4) [3]: 29.10
Pharmacophore torsion angle a(H4, O1, O2, H3) [3]: 51.75
Pharmacophore torsion angle a(H4, O1, O2, N2) [3]: 141.21
Pharmacophore torsion angle a(N1, CA1, O1, H4) [3]: 23.27
Pharmacophore torsion angle a(O1, H4, O2, CA1) [3]: −87.24
Pharmacophore torsion angle a(O1, O2, N2, C2) [3]: 116.16
Pharmacophore torsion angle a(O1, O2, N2, CA2) [4]: 126.84
Pharmacophore torsion angle a(O1, O2, N2, CA4) [4]: 106.20
